Experimental data from patent US20100099757A1, “DISULFIRAM DOSES AND TREATMENT REGIMEN SUITABLE FOR TREATMENT OF ANGIOGENESIS-DEPENDENT DISORDERS” (priority 2006, published 2010).

Columns and labels:
aldehyde dehydrogenase = target: T1, aldehyde dehydrogenase (Rattus norvegicus, UniProt P11884); details: cited from earlier work
T1 sequence (P11884 20-519): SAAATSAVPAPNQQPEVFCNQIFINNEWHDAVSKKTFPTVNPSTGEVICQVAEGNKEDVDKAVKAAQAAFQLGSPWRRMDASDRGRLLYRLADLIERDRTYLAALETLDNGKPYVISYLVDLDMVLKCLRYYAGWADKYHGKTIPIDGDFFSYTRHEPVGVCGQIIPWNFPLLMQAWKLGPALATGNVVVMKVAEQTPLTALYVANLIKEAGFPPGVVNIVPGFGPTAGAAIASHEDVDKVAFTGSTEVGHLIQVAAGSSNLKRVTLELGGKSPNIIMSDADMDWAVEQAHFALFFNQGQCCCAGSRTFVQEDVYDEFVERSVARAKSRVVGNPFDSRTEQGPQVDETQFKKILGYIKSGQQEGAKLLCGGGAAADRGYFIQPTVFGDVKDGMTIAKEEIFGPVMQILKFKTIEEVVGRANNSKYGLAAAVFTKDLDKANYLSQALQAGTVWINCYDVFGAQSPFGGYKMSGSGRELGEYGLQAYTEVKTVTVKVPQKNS

[1] = system: non-small cell lung cancer; assay: Phase II trial of disulfuram with Cisplatin/Vinorelbine in non-small cell lung cancer; format: in vivo; details: 120 mg daily (40 mg three times a day) for eighteen weeks, human patients
From the text: A phase II, multicenter, randomized, double blind study was designed to assess the dose response of humans suffering from lung cancer to Disulfuram or a disulfuram-Cisplatin/Vinorelbine combination. Patients with histogically or cytologically documented advanced (i.e. stage Mb or stage IV), or recurrent non-small cell lung cancer, previously untreated with systemic anti-tumor therapy were selected for the study. The patients were randomly assigned to the standard first line hospital chemotherapy treatment (Cisplatin/Vinorelbine) with placebo or Cisplatin/Vinorelbine in combination with disulfuram. Treatment was provided in cycles of 21-day time periods until progression or for a maximum of 6 cycles.
The patients were further assessed for overall survival, time to progression and duration of response.
Standard administration regimens for cisplatin and Vinorelbine were followed.
Placebo capsules included the lactose carrier but were devoid of disulfuram. Each patient received the disulfuram or placebo from the treating physician.

[2] = cited from earlier work
[3] = oral DSF, cited from earlier work
Lewis lung carcinoma = details: oral administration to mice; cited from earlier work
C6 glioma tumor = details: oral administration to mice; cited from earlier work
angiogenesis = details: oral administration, CD1 nude mice; cited from earlier work
[4] = system: bovine capillary endothelial (BCE) cells; details: cited from earlier work
[5] = target: Cu/Zn Suproxide dismutase (SOD-1) (Homo sapiens, UniProt P00441); details: both in vivo and in vitro; cited from earlier work
Sequence of Cu/Zn Suproxide dismutase (SOD-1) (P00441 whole entry, species assumed): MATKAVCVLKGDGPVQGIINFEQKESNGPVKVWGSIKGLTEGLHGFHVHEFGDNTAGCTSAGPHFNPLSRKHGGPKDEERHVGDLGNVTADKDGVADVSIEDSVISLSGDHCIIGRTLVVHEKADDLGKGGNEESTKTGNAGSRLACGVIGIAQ

[6] = system: advanced stage IV metastatic melanoma; details: daily 250-500 mg disulfuram and 50 mg zinc gluconate; three months from onset of therapy; cited from earlier work
cancer = details: cited from earlier work
[7] = system: acetaldehyde dehydrogenase; details: cited from earlier work
[8] = system: human malignant cell lines; details: combination of disulfuram and metal ions, in vitro; cited from earlier work
[9] = cultured BCE cells, prevented by copper and antioxidants

For `CCN(CC)C(=O)SC` [Me-DTC, diethylthiomethylcarbamate], the “inhibition of aldehyde dehydrogenase” value (aldehyde dehydrogenase) is listed as “most powerful irreversible inhibitor”.

In the case of `CCN(CC)C(=S)SSC(=S)N(CC)CC` [disulfuram, bis(diethylthiocarbamoyl) disulfide], the “time to progression and survival of non-small cell lung cancer” value [1] is listed as “extending time to progression and survival”, the soluble in alcohol ([2]; alcohol) is listed as “about 3.8 g in 100 ml” and the soluble in water ([2]; water) is listed as “about 20 mg in 100 ml”. For the same compound, the T1/2 ([3]; elimination kinetics) was 7.3 h, the “average time to reach maximum plasma concentration” value [3] was 8 to 10 h and the “reduction in the metastatic load of Lewis lung carcinoma” value (Lewis lung carcinoma) was 10-19 fold. The “C6 glioma tumor development” value (C6 glioma tumor) was “significant inhibition”, the angiogenesis (angiogenesis) was “inhibited angiogenesis” and the level of glutathione ([4]; BCE cells) was “reduced the level of glutathione”. For the same compound, the DNA synthesis [4, 9] was “inhibition of DNA synthesis”, the apoptosis [4, 9] was “induction of apoptosis” and the “activity of Cu/Zn Suproxide dismutase (SOD-1)” value [5] was “inhibits activity”. The “reduction in tumor size” value [6] was over 50%, the “response rate, time to progression, or median survival” value (cancer; about 2000 mg/subject disulfuram with 100 mg/m2 cisplatin once every 3-4 weeks, versus cisplatin alone) was “no statistically-significant difference” and the gastrointestinal and ototoxicities (cancer; about 2000 mg/subject disulfuram with 100 mg/m2 cisplatin) was “enhanced”. For the same compound, the “concentration of acetaldehyde in the blood versus same amount of alcohol alone” value ([7]; after alcohol intake under the influence of disulfuram) was 5 to 10 times higher, the onset of effect ([7]; single dose unit) was 1 to 2 h and the “time of peak effect” value ([7]; single dose unit) was “about 12 hours”. For the same compound, the “time effect is sustained” value ([7]; single dose unit, depends on liver enzymes) was 12 to 72 h, the “duration of effects of a single dose in some individuals” value ([7]; single dose, some individuals) was “up to 2 weeks” and the “proliferation of human malignant cell lines” value [8] was “inhibited the proliferation”.
